From patent US8163909B2, “Substituted hydroxyethyl amine compounds as beta-secretase modulators and methods of use” (Amgen Inc., priority 2007, dated 2012)
Like-named read-outs stand apart in the source and are kept apart here.

Assays:
[1] = biological target: Beta Secretase enzyme (BACE) (Homo sapiens, UniProt P56817); test: In vitro enzymatic BACE FRET (fluorescence resonance energy transfer) assay; assay type: biochemical; conditions: BACE enzyme assay; read-out: BACE1 FRET assay;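 further: fluorescence read after 1 h with 50 nM quenched peptide substrate spanning the BACE cleavage site, in pH 4.2 acetate buffer containing 10% DMSO and nonionic detergent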
Beta Secretase enzyme (BACE), sequence (P56817 46-501): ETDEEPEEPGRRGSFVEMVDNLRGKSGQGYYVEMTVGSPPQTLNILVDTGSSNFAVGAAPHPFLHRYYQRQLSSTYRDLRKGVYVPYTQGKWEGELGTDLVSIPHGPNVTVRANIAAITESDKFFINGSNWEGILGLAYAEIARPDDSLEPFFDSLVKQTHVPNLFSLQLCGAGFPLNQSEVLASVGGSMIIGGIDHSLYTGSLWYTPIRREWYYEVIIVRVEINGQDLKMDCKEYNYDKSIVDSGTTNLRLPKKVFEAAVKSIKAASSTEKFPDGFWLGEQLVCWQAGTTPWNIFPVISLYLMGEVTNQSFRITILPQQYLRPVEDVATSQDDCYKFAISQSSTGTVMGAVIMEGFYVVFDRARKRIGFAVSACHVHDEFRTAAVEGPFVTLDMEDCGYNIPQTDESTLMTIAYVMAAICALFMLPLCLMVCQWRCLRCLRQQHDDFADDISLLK

[2] = test system: Aβ40 in conditioned medium of cells stably expressing Amyloid Precursor Protein (APP); test: In vitro BACE cell-based assay (Aβ40 in conditioned medium, sandwich ELISA); conditions: read-out: HEK cell assay;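 further: compounds added as a dilution series, secreted peptide quantified by europium time-resolved fluorescence readout, potency fitted from percent of control versus compound concentration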
CYP3A4 (CYP3A) = CYP3A4 (CYP3A) (Homo sapiens, UniProt P08684); test: in vitro; conditions: microsomes, pH 7.4;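 further: inhibition of CYP3A-mediated 1-hydroxymidazolam formation after 10 min incubation with NADPH, quantified by HPLC MS relative to metabolite produced without test compound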
CYP3A4 (CYP3A), sequence (P08684 2-503): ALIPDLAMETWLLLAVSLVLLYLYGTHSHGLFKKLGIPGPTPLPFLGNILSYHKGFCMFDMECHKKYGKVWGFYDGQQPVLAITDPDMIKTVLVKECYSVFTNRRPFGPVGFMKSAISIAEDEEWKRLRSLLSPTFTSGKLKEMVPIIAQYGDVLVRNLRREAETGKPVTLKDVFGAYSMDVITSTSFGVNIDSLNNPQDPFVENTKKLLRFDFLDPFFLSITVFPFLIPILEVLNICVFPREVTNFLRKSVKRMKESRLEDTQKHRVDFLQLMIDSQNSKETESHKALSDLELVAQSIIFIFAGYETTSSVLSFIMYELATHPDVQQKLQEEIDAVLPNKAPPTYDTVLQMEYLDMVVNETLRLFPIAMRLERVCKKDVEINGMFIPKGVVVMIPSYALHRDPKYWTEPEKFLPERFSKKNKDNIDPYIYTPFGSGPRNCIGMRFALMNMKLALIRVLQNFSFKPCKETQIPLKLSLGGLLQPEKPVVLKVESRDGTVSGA

[3] = Microsomal stability assay, rat liver microsomes; conditions: rat liver microsomal data;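 further: rat liver microsomes (0.25 mg/mL) with about 1 µM compound plus 1 mM NADPH, pH 7.4, 37 °C for 30 min, parent left measured by LC-MS/MS against 0 min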
[4] = Microsomal stability assay, human liver microsomes; conditions: human liver microsomal data;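 further: pooled human liver microsomes at 0.25 mg/mL with 1 µM compound and NADPH at 37 °C, pH 7.4, for 30 min, unchanged parent quantified by LC-MS/MS against the 0 min sample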
CYP2D6 = CYP2D6 (Homo sapiens, UniProt P10635); test: CYP2D6 inhibition assay (bufuralol, pooled human liver microsomes); conditions: 2D6 IC50 (uM), CYP enzyme inhibition
CYP2D6, sequence (P10635 whole entry): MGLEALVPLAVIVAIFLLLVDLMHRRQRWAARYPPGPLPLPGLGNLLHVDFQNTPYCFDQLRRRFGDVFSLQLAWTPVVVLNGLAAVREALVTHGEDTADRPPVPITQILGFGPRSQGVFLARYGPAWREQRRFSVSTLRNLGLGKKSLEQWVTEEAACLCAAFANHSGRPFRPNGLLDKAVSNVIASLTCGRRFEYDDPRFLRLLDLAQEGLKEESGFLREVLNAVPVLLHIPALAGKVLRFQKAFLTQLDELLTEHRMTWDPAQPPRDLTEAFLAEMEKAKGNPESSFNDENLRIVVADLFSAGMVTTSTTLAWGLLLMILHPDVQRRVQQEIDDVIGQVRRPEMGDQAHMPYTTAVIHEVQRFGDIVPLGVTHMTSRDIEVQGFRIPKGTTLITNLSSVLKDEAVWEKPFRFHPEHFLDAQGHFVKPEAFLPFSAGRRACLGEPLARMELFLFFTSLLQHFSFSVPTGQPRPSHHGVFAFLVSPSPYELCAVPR

[5] = Homo sapiens, HEK293, HEK cells

| SMILES | IC50 [1] | IC50 [2, 5] | IC50 (CYP3A4 (CYP3A)) | RLM [3] | HLM [4] | IC50 (CYP2D6) | IC50 ([2]; HEK cells) |
| --- | --- | --- | --- | --- | --- | --- | --- |
| COCC(=O)N[C@@H](Cc1cc(F)cc(F)c1)[C@H](O)CN[C@H]1CC2(CCC2)Oc2c(-c3cccnc3)cc(CC(C)(C)C)cc21 [compound 489] | 7 nM | 20 nM | 400 nM | 775 µL/min/mg | 399 µL/min/mg | 3.9 µM |  |
| COCC(=O)N[C@@H](Cc1cc(F)cc(F)c1)[C@H](O)CN[C@H]1CC2(CCC2)Oc2c(-c3cncs3)cc(CC(C)C)cc21 [compound 490] | 3 nM | 29 nM | 200 nM | 249 µL/min/mg | 344 µL/min/mg | 7.5 µM |  |
| CO[C@H](C)C(=O)N[C@@H](Cc1cc(F)cc(F)c1)[C@H](O)CN[C@H]1CC2(CCC2)Oc2c(-c3cncs3)cc(CC(C)C)cc21 [compound 491] | 4 nM | 36 nM | 200 nM | 285 µL/min/mg | 345 µL/min/mg | 6.2 µM |  |
| COCC(=O)N[C@@H](Cc1ccc(F)cc1)[C@H](O)CN[C@@H]1CC2(CCC2)Oc2c1cc(CC(C)(C)C)nc2C#N [compound 492] | 5040 nM | 462 nM | 400 nM | 190 µL/min/mg | 94 µL/min/mg | 8.2 µM |  |
| COCC(=O)N[C@@H](Cc1ccc(F)cc1)[C@H](O)CN[C@H]1CC2(CCC2)Oc2c1cc(CC(C)(C)C)nc2C#N [compound 493] | 44 nM | 471 nM | 600 nM | 221 µL/min/mg | 95 µL/min/mg | 11.6 µM |  |
| COCC(=O)N[C@@H](Cc1cc(F)cc(F)c1)[C@H](O)CN[C@H]1CC2(CCC2)Oc2c1cc(CC(C)(C)C)nc2-n1ccnc1 [compound 494] | 20 nM | 72 nM | 200 nM | 63 µL/min/mg | 30 µL/min/mg | 1.2 µM |  |
| CO[C@H](C)C(=O)N[C@@H](Cc1cc(F)cc(F)c1)[C@H](O)CN[C@H]1CC2(CCC2)Oc2c1cc(CC(C)(C)C)nc2-n1ccnc1 [compound 495] | 20 nM | 80 nM | 100 nM | 62 µL/min/mg | 41 µL/min/mg | 2 µM |  |
| COCC(=O)N[C@@H](Cc1ccc(F)cc1)[C@H](O)CN[C@H]1CC2(CCC2)Oc2ncc(CC(C)(C)C#N)cc21 [compound 496] | 24 nM | 102 nM | 4700 nM | 139 µL/min/mg | 89 µL/min/mg | ≥ 27 µM |  |
| CC(=O)N[C@@H](Cc1ccc(F)cc1)[C@H](O)CN[C@H]1CC2(CCC2)Oc2c1cc(CC(C)(C)C)nc2NC1CCC1 [compound 497] | 77 nM | 100 nM | 3300 nM | 172 µL/min/mg | 157 µL/min/mg | 2.6 µM |  |
| COCC(=O)N[C@@H](Cc1ccc2c(c1)OCO2)[C@H](O)CN[C@H]1CC2(CCC2)Oc2ccc(C[C@@H](C)F)cc21 [compound 498] | 268 nM |  | 500 nM | 206 µL/min/mg | 119 µL/min/mg | 0.7 µM | 377 nM |
| CO[C@@H](C)C(=O)N[C@@H](Cc1ccc2c(c1)OCO2)[C@H](O)CN[C@H]1CC2(CCC2)Oc2ccc(C[C@@H](C)F)cc21 [compound 499] | 1360 nM | 473 nM | 300 nM | 213 µL/min/mg | 156 µL/min/mg | 0.7 µM |  |
| CO[C@H](C)C(=O)N[C@@H](Cc1cccc(F)c1)[C@H](O)CN[C@@H]1CC2(CCC2)Oc2c1cc(CC(C)(C)C)nc2-n1ccnc1 [compound 501] | 5300 nM | > 10000 nM | 100 nM | 175 µL/min/mg | 86 µL/min/mg | 2.8 µM |  |
| COCC(=O)N[C@@H](Cc1cccc(F)c1)[C@H](O)CN[C@@H]1CC2(CCC2)Oc2c1cc(CC(C)(C)C)nc2-n1ccnc1 [compound 502] | 2000 nM | 1850 nM | 100 nM | 158 µL/min/mg | 54 µL/min/mg | 0.8 µM |  |
| CC(C)(C)Cc1cnc2c(c1)[C@@H](NC[C@@H](O)[C@H](Cc1ccc3c(c1)OCO3)NC(=O)C1CCO1)CC1(CCC1)O2 (stereo partly drawn) [compound 503, N-((1S,2R)-1-(1,3-benzodioxol-5-ylmethyl)-3-(((4′S)-6′-(2,2-dimethylpropyl)-3′,4′-dihydrospiro[cyclobutane-1,2′-pyrano[2,3-b]pyridin]-4′-yl)amino)-2-hydroxypropyl)-2-oxetanecarboxamide] | 21 nM | 17 nM | 200 nM | 130 µL/min/mg | 23 µL/min/mg | 3.3 µM |  |
| COCC(=O)N[C@@H](Cc1cccc(F)c1)[C@H](O)CN[C@H]1CC2(CCC2)Oc2c1cc(CC(C)(C)C)cc2-n1ccnc1 [compound 505] | 19 nM | 6 nM | 100 nM | 153 µL/min/mg | 51.5 µL/min/mg | 1.9 µM |  |
| CO[C@H](C)C(=O)N[C@@H](Cc1cccc(F)c1)[C@H](O)CN[C@H]1CC2(CCC2)Oc2c1cc(CC(C)(C)C)nc2-n1ccnc1 [compound 507] | 22 nM | 57 nM | 100 nM | 95 µL/min/mg | 14 µL/min/mg | 1.9 µM |  |
| COCC(=O)N[C@@H](Cc1cc(F)cc(F)c1)[C@H](O)CN[C@H]1CC2(CCC2)Oc2c1cc(CC(C)(C)C)nc2-c1cnc[nH]1 [compound 508] | 24 nM | 5 nM | 100 nM | 43 µL/min/mg | 17 µL/min/mg | 1.2 µM |  |
| COCC(=O)N[C@@H](Cc1cc(F)cc(F)c1)[C@H](O)CN[C@@H]1CC2(CCC2)Oc2c1cc(CC(C)(C)C)nc2-c1cnc[nH]1 [compound 509] | 487 nM | 77 nM | 100 nM | 70 µL/min/mg | 74 µL/min/mg | 2.3 µM |  |
| CC(=O)N[C@@H](Cc1cc(F)cc(F)c1)[C@H](O)CN[C@H]1CC2(CCC2)Oc2c1cc(CC(C)(C)C)nc2-c1cscn1 [compound 510] | 8 nM | 17 nM | 1100 nM | 358 µL/min/mg | 380 µL/min/mg | 10.3 µM |  |
| CO[C@H](C)C(=O)N[C@@H](Cc1cc(F)cc(F)c1)[C@H](O)CN[C@H]1CC2(CCC2)Oc2ncc(CC(C)(C)C#N)cc21 [compound 511] | 7 nM | 11 nM | 2400 nM | 203 µL/min/mg | 382 µL/min/mg | 14.5 µM |  |
| COCC(=O)N[C@@H](Cc1cccc(F)c1)[C@H](O)CN[C@H]1CC2(CCC2)Oc2ccc(C[C@H](C)F)cc21 [compound 512] | 28 nM | 61 nM | 5700 nM | 829 µL/min/mg | 614 µL/min/mg | 0.5 µM |  |
| COCC(=O)N[C@@H](Cc1ccc(F)cc1)[C@H](O)CN[C@H]1CC2(CCC2)Oc2c(-c3cnc[nH]3)cc(CC(C)C)cc21 [compound 513] | 88 nM | 13 nM | 200 nM | 82 µL/min/mg | 143 µL/min/mg | 2.5 µM |  |
